Values belong to the compound of their own block, whether it stands above or below them.
Key:
[1] = target: T1, AIM2 inflammasome (Mus musculus, UniProt Q91VJ1); assay: Inhibition of AIM2 inflammasome; type: cell-based; details: LPS 1 μg/mL, poly(dA:dT) 4 μg/mL 4 h; 1 at 3 and 10 μM, 8 at 10 μM
T1 sequence (Q91VJ1 1-354): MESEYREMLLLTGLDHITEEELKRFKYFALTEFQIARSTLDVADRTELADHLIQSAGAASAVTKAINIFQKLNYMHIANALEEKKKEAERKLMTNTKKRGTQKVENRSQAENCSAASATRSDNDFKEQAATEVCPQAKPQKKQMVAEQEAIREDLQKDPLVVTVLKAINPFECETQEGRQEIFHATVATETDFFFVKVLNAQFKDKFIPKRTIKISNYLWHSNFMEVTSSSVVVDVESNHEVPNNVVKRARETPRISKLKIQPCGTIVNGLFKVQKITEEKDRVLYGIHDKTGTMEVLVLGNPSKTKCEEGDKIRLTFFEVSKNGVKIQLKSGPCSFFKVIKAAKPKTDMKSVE

[2] = target: NLRC4 inflammasome (Mus musculus, UniProt Q3UP24); assay: Inhibition of NLRC4 inflammasome; type: cell-based; details: LPS 1 μg/mL, flagellin 1 μg/mL 6 h; 1 at 3 and 10 μM, 8 at 10 μM
NLRC4 inflammasome, sequence (Q3UP24 whole entry): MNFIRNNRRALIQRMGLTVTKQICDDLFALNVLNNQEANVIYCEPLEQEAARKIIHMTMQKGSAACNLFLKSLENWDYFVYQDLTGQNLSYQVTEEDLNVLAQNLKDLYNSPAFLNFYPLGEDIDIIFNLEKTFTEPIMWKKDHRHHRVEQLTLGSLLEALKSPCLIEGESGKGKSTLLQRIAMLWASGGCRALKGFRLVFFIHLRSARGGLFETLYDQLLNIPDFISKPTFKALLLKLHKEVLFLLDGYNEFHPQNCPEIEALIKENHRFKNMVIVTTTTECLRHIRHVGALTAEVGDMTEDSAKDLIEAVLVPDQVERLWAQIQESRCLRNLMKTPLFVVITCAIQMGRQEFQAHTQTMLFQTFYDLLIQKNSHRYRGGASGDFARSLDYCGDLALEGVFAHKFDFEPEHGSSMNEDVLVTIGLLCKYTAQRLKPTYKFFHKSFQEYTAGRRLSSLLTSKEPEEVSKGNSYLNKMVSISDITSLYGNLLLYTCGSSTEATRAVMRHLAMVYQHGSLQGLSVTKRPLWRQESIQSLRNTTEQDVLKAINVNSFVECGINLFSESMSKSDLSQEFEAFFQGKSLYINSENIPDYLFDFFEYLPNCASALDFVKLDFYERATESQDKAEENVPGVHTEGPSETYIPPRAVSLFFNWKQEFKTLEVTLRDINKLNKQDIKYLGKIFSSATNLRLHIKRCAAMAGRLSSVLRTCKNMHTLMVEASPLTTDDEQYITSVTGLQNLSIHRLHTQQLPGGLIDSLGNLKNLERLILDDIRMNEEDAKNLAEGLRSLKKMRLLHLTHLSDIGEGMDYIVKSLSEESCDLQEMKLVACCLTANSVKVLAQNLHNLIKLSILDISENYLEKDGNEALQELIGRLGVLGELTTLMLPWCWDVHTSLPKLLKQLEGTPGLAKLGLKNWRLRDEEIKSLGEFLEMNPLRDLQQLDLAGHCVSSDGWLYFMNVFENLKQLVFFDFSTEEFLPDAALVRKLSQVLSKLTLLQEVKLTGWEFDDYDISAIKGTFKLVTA

[3] = test system: priming by LPS (TNF-α); assay: LPS priming step, TNF-α in J774A.1 culture media by ELISA; type: cell-based, mouse; details: concentrations ≤ 3 μM
[4] = target: NLRP3 inflammasome (Mus musculus, UniProt Q8R4B8); details: IL-1β release, LPS/ATP
NLRP3 inflammasome (Mus musculus, UniProt Q8R4B8), sequence (Q8R4B8 whole entry): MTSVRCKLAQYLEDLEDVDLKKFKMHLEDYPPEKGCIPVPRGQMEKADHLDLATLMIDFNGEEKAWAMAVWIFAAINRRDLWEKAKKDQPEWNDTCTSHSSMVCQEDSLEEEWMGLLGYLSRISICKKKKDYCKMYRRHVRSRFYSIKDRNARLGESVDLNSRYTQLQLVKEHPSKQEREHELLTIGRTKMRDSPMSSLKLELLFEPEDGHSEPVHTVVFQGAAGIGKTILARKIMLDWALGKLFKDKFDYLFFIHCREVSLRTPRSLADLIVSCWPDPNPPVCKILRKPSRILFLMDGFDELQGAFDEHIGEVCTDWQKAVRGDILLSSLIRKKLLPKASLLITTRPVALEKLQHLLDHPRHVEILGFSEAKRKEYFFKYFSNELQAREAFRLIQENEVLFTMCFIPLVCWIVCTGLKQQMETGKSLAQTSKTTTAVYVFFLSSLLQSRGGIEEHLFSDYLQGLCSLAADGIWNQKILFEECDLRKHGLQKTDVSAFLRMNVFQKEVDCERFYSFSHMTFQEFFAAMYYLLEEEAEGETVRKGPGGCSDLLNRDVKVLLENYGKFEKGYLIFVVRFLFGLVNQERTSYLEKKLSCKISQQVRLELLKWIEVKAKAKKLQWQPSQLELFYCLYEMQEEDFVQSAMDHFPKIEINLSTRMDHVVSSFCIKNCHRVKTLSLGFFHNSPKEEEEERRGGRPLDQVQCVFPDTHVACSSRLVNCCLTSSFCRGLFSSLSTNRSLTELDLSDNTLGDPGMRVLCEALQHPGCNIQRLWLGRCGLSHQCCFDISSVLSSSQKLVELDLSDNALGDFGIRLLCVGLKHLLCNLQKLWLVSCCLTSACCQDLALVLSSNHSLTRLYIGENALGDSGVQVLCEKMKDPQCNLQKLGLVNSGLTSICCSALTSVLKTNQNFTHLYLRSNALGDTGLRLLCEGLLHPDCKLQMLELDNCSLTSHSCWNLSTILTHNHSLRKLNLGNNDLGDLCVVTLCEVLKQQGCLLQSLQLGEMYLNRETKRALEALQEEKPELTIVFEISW

[5] = test system: AD animal models; details: cited from earlier work
[6] = earlier work of the authors; cited from earlier work
[7] = target: human recombinant NLRP3 protein; details: cited from earlier work
[8] = test system: NLRP3 inflammasome; details: read-out: IC50 (potency as NLRP3 inhibitor); cited from earlier work

SMILES: CCCOc1ccc(Cl)cc1Cn1cc(-c2ccccc2)nn1 [Compound 1, 1-(5-chloro-2-propoxybenzyl)-4-phenyl-1H-1,2,3-triazole]
- inhibition of the AIM2 inflammasome [1]: only observed for the NLRC4 and AIM2 inflammasomes at higher concentrations
- inhibition of the NLRC4 inflammasome [2]: only observed for the NLRC4 and AIM2 inflammasomes at higher concentrations
- interference with the priming by LPS [3]: did not show interference

SMILES: CCCOc1ccc(Cl)cc1Cn1cc(-c2ccc(S(N)(=O)=O)cc2)nn1 [Compound 2, 4-(1-(5-chloro-2-propoxybenzyl)-1H-1,2,3-triazol-4-yl)benzenesulfonamide]
- inhibitory potency compared to 1 [4]: comparable potency

SMILES: CCCOc1ccc(Cl)cc1Cn1cc(-c2ccc(C(=O)O)cc2)nn1 [Compound 7, 4-(1-(5-chloro-2-propoxybenzyl)-1H-1,2,3-triazol-4-yl)benzoic acid]
- lower potency compared to 6 [4]: ~ 10 fold

SMILES: COC(=O)c1ccc(-c2cn(Cc3ccccc3)nn2)cc1 [Compound 24, Methyl 4-(1-benzyl-1H-1,2,3-triazol-4-yl)benzoate]
- inhibitory potency compared to 8 [4]: ~3–7-fold decrease or complete loss of potency

SMILES: COC(=O)c1ccc(-c2cn(Cc3ccccc3OC)nn2)cc1 [Compound 25, Methyl 4-(1-(2-methoxybenzyl)-1H-1,2,3-triazol-4-yl)benzoate]
- inhibitory potency compared to 8 [4]: ~3–7-fold decrease or complete loss of potency

SMILES: COC(=O)c1ccc(-c2cn(Cc3cccc(Cl)c3)nn2)cc1 [Compound 26, Methyl 4-(1-(3-chlorobenzyl)-1H-1,2,3-triazol-4-yl)benzoate]
- inhibitory potency compared to 8 [4]: ~3–7-fold decrease or complete loss of potency

SMILES: CNS(=O)(=O)c1ccc(CCNC(=O)c2cc(Cl)ccc2OC)cc1 [JC124]
- in vivo efficacy [5]: in vivo efficacy
- metabolism / metabolic stability in mouse liver microsomes [6]: relatively better metabolic stability

SMILES: C#CCNS(=O)(=O)c1ccc(CCN(Cc2cc(Cl)ccc2OCCC)C(=O)Cc2ccsc2)cc1 [YQ128]
- metabolism / metabolic stability in mouse liver microsomes [6]: rapid metabolism
- Kd [7]: 117 nM
- IC50 [8]: 300 ± 10 nM

Continued, values first:

- inhibition of the AIM2 inflammasome [1]: did not show inhibitory effects
- inhibition of the NLRC4 inflammasome [2]: did not show inhibitory effects
SMILES: COC(=O)c1ccc(-c2cn(Cc3cc(Cl)ccc3OC)nn2)cc1 [Compound 8, Methyl 4-(1-(5-chloro-2-methoxybenzyl)-1H-1,2,3-triazol-4-yl)benzoate]

- inhibitory potency compared to 8 [4]: decrease of inhibitory potency
SMILES: COC(=O)c1cccc(-c2cn(Cc3cc(Cl)ccc3OC)nn2)c1 [Compound 11, Methyl 3-(1-(5-chloro-2-methoxybenzyl)-1H-1,2,3-triazol-4-yl)benzoate]

- inhibitory potency compared to 8 [4]: significantly less potent
SMILES: COc1ccc(Cl)cc1Cn1cc(-c2ccc(C(=O)O)cc2)nn1 [Compound 12, 4-(1-(5-chloro-2-methoxybenzyl)-1H-1,2,3-triazol-4-yl)benzoic acid]

- inhibitory potency compared to 8 [4]: decreased inhibitory potency
SMILES: CNC(=O)c1ccc(-c2cn(Cc3cc(Cl)ccc3OC)nn2)cc1 [Compound 13, 4-(1-(5-chloro-2-methoxybenzyl)-1H-1,2,3-triazol-4-yl)-N-methylbenzamide]

- inhibitory potency compared to 8 [4]: decreased inhibitory potency
SMILES: COc1ccc(Cl)cc1Cn1cc(-c2ccc(C(=O)N3CCC3)cc2)nn1 [Compound 14, Azetidin-1-yl(4-(1-(5-chloro-2-methoxybenzyl)-1H-1,2,3-triazol-4-yl)phenyl)methanone]

- decrease in inhibitory potency compared to 8 [4]: 3–4 fold
SMILES: COC(=O)c1ccc(-c2cn(Cc3cc(Cl)ccc3OC)nn2)c(C)c1 [Compound 15, Methyl 4-(1-(5-chloro-2-methoxybenzyl)-1H-1,2,3-triazol-4-yl)-3-methylbenzoate]

- decrease in inhibitory potency compared to 8 [4]: 3–4 fold
SMILES: COC(=O)c1ccc(-c2cn(Cc3cc(Cl)ccc3OC)nn2)c(F)c1 [Compound 16, Methyl 4-(1-(5-chloro-2-methoxybenzyl)-1H-1,2,3-triazol-4-yl)-3-fluorobenzoate]

- decrease in inhibitory potency compared to 8 [4]: ~ 5 fold
SMILES: COC(=O)c1ccc(-c2cn(Cc3cc(Cl)ccc3O)nn2)cc1 [Compound 27, Methyl 4-(1-(5-chloro-2-hydroxybenzyl)-1H-1,2,3-triazol-4-yl)benzoate]

- inhibitory potency compared to 8 [4]: comparable potency
SMILES: COC(=O)c1ccc(-c2cn(Cc3cc(Cl)cc(OC)c3)nn2)cc1 [Compound 28, Methyl 4-(1-(3-chloro-5-methoxybenzyl)-1H-1,2,3-triazol-4-yl)benzoate]

- decrease in inhibitory potency compared to 8 [4]: 2–3 fold
SMILES: COC(=O)c1ccc(-c2cn(Cc3cc(F)ccc3OC)nn2)cc1 [Compound 32, Methyl 4-(1-(5-fluoro-2-methoxybenzyl)-1H-1,2,3-triazol-4-yl)benzoate]

- decrease in inhibitory potency compared to 8 [4]: 2–3 fold
SMILES: COC(=O)c1ccc(-c2cn(Cc3cc(Br)ccc3OC)nn2)cc1 [Compound 33, Methyl 4-(1-(5-bromo-2-methoxybenzyl)-1H-1,2,3-triazol-4-yl)benzoate]

- inhibitory potency compared to 8 [4]: comparable potency
SMILES: COC(=O)c1ccc(-c2cn(Cc3cc(C(F)(F)F)ccc3OC)nn2)cc1 [Compound 34, Methyl 4-(1-(2-methoxy-5-(trifluoromethyl)benzyl)-1H-1,2,3-triazol-4-yl)benzoate]

From article PMC11002996 (Journal of medicinal chemistry, 2023)
